Results reported in ChEMBL document CHEMBL4396919, “Permeability of Cyclic Peptide Macrocycles and Cyclotides and Their Potential as Therapeutics” (ACS Med Chem Lett, 2019).
*1 amine or outer side, *2 acyl side, *3 side chain or, on linkers, in order; H or OH if unused. Where a SMILES comes first, the peptide text is derived from it. [ ]: non-standard residue; d: D form. Ile(ψThz) = CC[C@H](C)[C@H](N[*:1])c1nc(C(=O)[*:2])cs1; NMeF = CN[C@@H](Cc1ccccc1)C(=O)O; Tle = CC(C)(C)[C@H](N)C(=O)O

Legend:
[1] = in vitro; conditions: dog, MDCK
Description: Permeability in RRCK cells

[2] = in vivo; conditions: Wistar, rat, po, 10 mg/kg

| Papp [1] [×10⁻⁶ cm/s] | bioavailability at 8 h [2] [%] | Compound |
| --- | --- | --- |
| 0.7 | 7 | CC[C@H](C)[C@@H]1NC(=O)[C@@H]2CCCN2C(=O)[C@H](Cc2ccccc2)NC(=O)[C@H](C)NC(=O)c2csc(n2)[C@H]([C@@H](C)CC)NC(=O)[C@@H]2CCCN2C1=O (cyclo(AFPIP[Ile(ψThz)])) |
| – | 21 | CC[C@H](C)[C@@H]1NC(=O)[C@@H]2CCCN2C(=O)[C@H](Cc2ccccc2)N(C)C(=O)[C@H](C(C)(C)C)NC(=O)c2csc(n2)[C@H]([C@@H](C)CC)NC(=O)[C@@H]2CCCN2C1=O (cyclo(IP[Ile(ψThz)][Tle][NMeF]P)) |
